Assay results as given in US6720332B2, “Oxindole derivatives” (SmithKline Beecham Corporation, priority 2000, dated 2004).

Columns and labels:
[1] = molecular target: T1, CDK4 (Cyclin D1 and cyclin-dependent kinase 4) (Homo sapiens, UniProt P11802); test: CDK4 substrate phosphorylation assay (Rb protein); format: biochemical; conditions: read-out: CDK4 inhibition
T1 construct: made in house
Experimental: (§1) The compounds of the present invention have valuable pharmacologic properties. Different compounds from this class are particularly effective at inhibiting CDK2 and/or CDK4 enzymes at concentrations, which range from 0.0001 to 1 μM and additionally show specificity relative to other kinases. Substrate phosphorylation assays were carried out as follows:
Cyclin D1 and cyclin-dependent kinase 4 were expressed utilizing a baculovirus expression system. The catalytic activity of CDK4 protein was assayed by measuring the phosphorylation of Rb protein. A truncated Rb protein (residues 773-928 of the native retinoblastoma protein, fused to glutathione S-transferase to facilitate purification) was used as the phosphoryl acceptor. The assay conditions were 100 mM HEPES (N-[2-hydroxyethyl]piperzine-N′-[2-ethanesulfonic acid]), pH 7.5, 0.5 μM GST-Rb protein, 1 μCi/mL [^33P]-ATP (1 nM-20 μM), 5-20 mM MgCl2, 2.5 mM EDTA, 1 mM dithiothieitol, 0.2 mg/mL bovine serum albumin, 2% (v/v) dimethyl sulfoxide (DMSO), CDK4 enzyme (5-50 nM) in a final volume of 50 μL. Reactions were incubated for time periods of 10-60 min at 30° C. and terminated by the addition of 50 μL quench (1 mM ATP/100 mM EDTA, pH 7.0). Detection of protein phosphorylation was accomplished by scintillation counting following collection of protein in 96 well plates coated with Glitathione or trapping of protein onto phosphocellulose filters. Counts detected by these methodologies minus the appropriate background were assumed to be proportional to the reaction initial rates. IC50 values were determined by measuring enzyme activity in the presence of different inhibitor concentrations (0.1 nM to 50 μM). IC50s were determined by a least squares fit to the equation CPM=Vmax*(1−([I]/(K+[I])))+nsb, or pIC50s were determined by a fit to the equation CPM=nsb+(Vmax−nsb)/(1+(x/10^x−pIC50)), where nsb are the background counts.

CDK2 = molecular target: T2, CDK2 (Homo sapiens, UniProt P24941); test: CDK2 substrate phosphorylation assay (biotinylated peptide); format: biochemical; conditions: read-out: CDK2 inhibition
T2 construct: made in house
Experimental: as §1
Cyclin dependent protein kinase 2 assays utilized the peptide Biotin-aminohexyl-ARRPMSPKKKA-NH2 as phosphoryl group acceptor. CDK2 was expressed utilizing a baculovirus expression system and was partially purified to comprise 20-80% of total protein, with no detectable competing reactions present. Typically, assays were performed by incubating enzyme (0.2-10 nM), with and without inhibitor, peptide substrate (1-10 nM), [g-^32P]ATP (1-20 nM), and 10-20 mM Mg^2+ for periods of time generally within the range 10-120 minutes. Reactions were terminated with 0.2-2 volumes of either 20% acetic acid or 50-100 mM EDTA buffered to pH 7 (substrate consumption <20%). The buffer employed in enzyme assay was 100 mM HEPES pH 7.5 containing 0.1 mg/mL BSA and 5% DMSO. Inhibitors were diluted in 100% DMSO prior to addition into the assay. Detection of peptide phosphorylation was accomplished by scintillation counting following either collection of peptide onto phosphocellulose filters (for reactions stopped with acetic acid), collection of peptide in wells of 96 well plates coated with Streptavidin (Pierce) (reactions were stopped with EDTA), or addition of Avidin coated Scintillant impregnated beads (Scintillation Proximity Assays from Amersham, reactions were stopped with EDTA). […] Radioactivity was determined by liquid scintillation counting.

[2] = tested on: human tumor cells (U2OS, MDA-MB-231, SaOs-2, MDA-MB-468); test: Anti-proliferation cell-based assay (BrdU incorporation); conditions: 18 hr compound incubation, cell line not given, read-out: Anti-proliferative activity
Experimental: Anti-Proliferation Cell-Based Assay
The anti-proliferative activity of compounds was determined measuring the rate of DNA synthesis by bromodeoxyuridine (BrdU) incorporation into cellular DNA. The amount of BrdU in cellular DNA was detected using an anti-BrdU antibody in an ELISA format to allow for rapid throughput. Log-phase growing human tumor cells either containing functional Rb (U2OS, MDA-MB-231) or lacking functional Rb protein (SaOs-2, MDA-MB-468) were plated in medium into 96-well plates (1−6×10^3 cells/100 μL medium/well) and allowed to incubate overnight […]. Compounds (concentration range of 0.046-100 μM) were diluted in medium (final DMSO (v/v) 0.8%), added to wells containing cells, and incubated for 18 hr at 37° C. BrdU (100 μM) was added and incubated for 4 hr. Cells were rinsed with PBS and DNA was denatured by addition of fixation/denaturation solution. Anti-BrdU antibody conjugated to horseradish peroxidase in 1% BSA was added for 2 hr at room temperature. Cells were washed, the chemiluminescence reagent was added, and plates were read in luminometer.

T1 sequence (P11802 whole entry): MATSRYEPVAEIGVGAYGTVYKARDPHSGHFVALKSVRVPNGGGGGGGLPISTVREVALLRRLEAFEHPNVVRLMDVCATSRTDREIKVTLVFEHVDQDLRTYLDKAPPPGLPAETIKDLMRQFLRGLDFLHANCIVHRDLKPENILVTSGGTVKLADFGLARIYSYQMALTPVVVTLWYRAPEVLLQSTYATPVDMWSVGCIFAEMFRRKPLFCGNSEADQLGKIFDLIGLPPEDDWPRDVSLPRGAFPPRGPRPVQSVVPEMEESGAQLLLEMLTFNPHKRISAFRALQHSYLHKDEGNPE
T1 sequence (P24385 whole entry partner): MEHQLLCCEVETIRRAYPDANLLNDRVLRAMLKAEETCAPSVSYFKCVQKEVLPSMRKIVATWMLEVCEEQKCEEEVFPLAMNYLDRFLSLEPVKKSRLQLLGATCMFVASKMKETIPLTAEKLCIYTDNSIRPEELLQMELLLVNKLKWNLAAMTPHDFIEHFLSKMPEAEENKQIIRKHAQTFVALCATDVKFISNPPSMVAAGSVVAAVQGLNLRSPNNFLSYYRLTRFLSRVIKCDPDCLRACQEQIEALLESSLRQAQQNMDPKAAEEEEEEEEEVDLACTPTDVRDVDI

| IC50 [1] [nM] | IC50 (CDK2) [nM] | IC50 [2] [nM] | Structure (SMILES) |
| --- | --- | --- | --- |
| < 100 | < 100 | < 1000 | O=C1Nc2ccc3ncccc3c2/C1=C/Nc1ccc(CN2CCOCC2)cc1 [Example 10, 1-[(Z)-(4-(4-morpholinyl)methylanilino)methylidene]-1,3-dihydro-2H-pyrrolo[3,2-f]quinoline-2-one] |
| < 100 | < 1000 | < 1000 | CN(C)Cc1ccc(N/C=C2\C(=O)Nc3ccc4ncccc4c32)cc1 [Example 1, 1-[(Z)-(4-Dimethylaminomethylanilino)methylidene]-1,3-dihydro-2H-pyrrolo[3,2-f]quinoline-2-one] |
| < 100 | < 1000 | < 100 | CC(C)CN(C)Cc1ccc(N/C=C2\C(=O)Nc3ccc4ncccc4c32)cc1 [Example 6, 1-[(Z)-(4-(N-Methyl)-2-methylpropylaminomethylanilino)methylidene]-1,3-dihydro-2H-pyrrolo[3,2-f]quinoline-2-one] |
